Results published in paper PMC4859520, “Binding Properties of General Odorant Binding Proteins from the Oriental Fruit Moth, Grapholita molesta (Busck) (Lepidoptera: Tortricidae)” (PLoS ONE, 2016).
Where two headings read alike, the source gives them in different places.

Tests used:
GmolGOBP1 = GmolGOBP1 (Grapholita molesta, UniProt H9XTU5); assay: Fluorescence competitive binding assay with probe 1-NPN, rGmolGOBP1; conditions: for binding to rGmolGOBP1 (in words): competitive binding with 1-NPN
Protocol: (§1) Fluorescence binding assays were performed on a Hitachi (Tokyo, Japan) F-4500 fluorescence spectrophotometer with a 1 cm light path fluorimeter quartz cuvette. Both of the slit widths for excitation and emission were 10 nm. 1-N-phenyl-naphthylamine (1-NPN) was dissolved in HPLC purity grade methanol to yield a 1 mM stock solution. […] The probes were excited at 337 nm and emission spectra were recorded between 370 and 550 nm. […] Binding data were collected in three independent measurements.
(§2) Dissociation constants of the complex GmolGOBPs/1-NPN (K1-NPN) were calculated by a nonlinear regression binding curve, using Prism 5.0 (GraphPad Software Inc.).

GmolGOBP2 = GmolGOBP2 (Grapholita molesta, UniProt H9XTU6); assay: Fluorescence competitive binding assay with probe 1-NPN, rGmolGOBP2 wild-type
Protocol: as §1, §2

GmolGOBP2 T9A = GmolGOBP2 T9A (Grapholita molesta, UniProt H9XTU6, T29A); assay: Fluorescence competitive binding assay, GmolGOBP2 mutant T9A
Protocol: (§3) Fluorescence binding assays were performed on a Hitachi (Tokyo, Japan) F-4500 fluorescence spectrophotometer with a 1 cm light path fluorimeter quartz cuvette. Both of the slit widths for excitation and emission were 10 nm. 1-N-phenyl-naphthylamine (1-NPN) was dissolved in HPLC purity grade methanol to yield a 1 mM stock solution. A 2 μM solution of the protein in 20 mM Tris-HCl, pH 7.4, was titrated with aliquots of 1 mM 1-NPN to final concentrations of 1, 2, 4, 6, 8, 10, 12, 14, 16, 18, and 22 μM. The probes were excited at 337 nm and emission spectra were recorded between 370 and 550 nm. All ligands (S1 File) used in competitive binding assays were also dissolved in HPLC purity grade methanol. The final concentrations of sex pheromones were between 1 and 22 μM for each rGmolGOBP protein, whereas the concentrations of 30 synthetic plant volatiles to rGmolGOBP1 and 2 were up to 64 and 100 μM, respectively. Binding data were collected in three independent measurements.
(§4) Dissociation constants of the complex GmolGOBPs/1-NPN (K1-NPN) were calculated by a nonlinear regression binding curve, using Prism 5.0 (GraphPad Software Inc.). The inhibition constants (Ki) of the competitors were computed from the corresponding IC50 values using the equation: Ki = [IC50]/(1+[1−NPN]/K1−NPN), where [1−NPN] is the free concentration of 1−NPN and K1-NPN is the dissociation constant of the complex protein/1-NPN.
(§5) Gene-specific primers were designed in accordance with the recommended protocols of the TaKaRa MutanBEST Kit (TaKaRa, Shiga, Japan). The GmolGOBP2 coding sequence was mutated to create the three mutants GmolGOBP2 T9A (threonine to alanine at position 9), GmolGOBP2 V111A (valine to alanine at position 111), and GmolGOBP2 V114A (valine to alanine at position 114). Mutations were obtained using the TaKaRa MutanBEST Kit with Pyrobest DNA polymerase with the pMD19-T/GmolGOBP2 plasmid DNA as template. All plasmids containing mutations were verified by DNA sequencing. Mutated protein expression and enrichment were performed as described above for rGmolGOBP1 and 2. After determining concentrations, purified mutants were applied to verify the binding affinities with dodecanol and its analogs in fluorescence ligand-binding assays.

GmolGOBP2 V111A = GmolGOBP2 V111A (Grapholita molesta, UniProt H9XTU6, V131A); assay: Fluorescence competitive binding assay, GmolGOBP2 mutant V111A
Protocol: as §3, §4, §5

GmolGOBP2 V114A = GmolGOBP2 V114A (Grapholita molesta, UniProt H9XTU6, V134A); assay: Fluorescence competitive binding assay, GmolGOBP2 mutant V114A
Protocol: as §3, §4, §5

rGmolGOBP1 = molecular target: T1, rGmolGOBP1 (Grapholita molesta, UniProt H9XTU5); assay: 1-NPN fluorescence binding titration of rGmolGOBP1; conditions: 2 μM protein, 20 mM Tris-HCl pH 7.4; read-out: dissociation constant of 1-NPN
T1 sequence (H9XTU5 21-164): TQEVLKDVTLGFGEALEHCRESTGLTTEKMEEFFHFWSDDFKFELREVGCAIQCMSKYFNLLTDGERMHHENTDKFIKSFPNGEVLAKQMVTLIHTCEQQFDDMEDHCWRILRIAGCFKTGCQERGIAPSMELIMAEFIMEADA
Protocol: as §3
(§6) Dissociation constants of the complex GmolGOBPs/1-NPN (K1-NPN) were calculated by a nonlinear regression binding curve, using Prism 5.0 (GraphPad Software Inc.). […]

rGmolGOBP2 = rGmolGOBP2 (Grapholita molesta, UniProt H9XTU6); assay: 1-NPN fluorescence binding titration of rGmolGOBP2; conditions: 2 μM protein, 20 mM Tris-HCl pH 7.4; read-out: dissociation constant of 1-NPN
Protocol: as §3, §6

rGmolPBP1 = molecular target: rGmolPBP1; set-up: method as in earlier work; conditions: cited from earlier work
rGmolOBP8 = molecular target: rGmolOBP8; set-up: method as in PMID 26609640; conditions: cited from earlier work
rGmolOBP11 = molecular target: rGmolOBP11; set-up: method as in PMID 26609640; conditions: cited from earlier work
[1] = protein and 1-NPN 2 μM, pH 7.4, calculated from IC50, read-out: GmolGOBP1 Ki
[2] = protein and 1-NPN 2 μM, pH 7.4, displacing half of initial fluorescence, read-out: GmolGOBP1 IC50
[3] = protein and 1-NPN 2 μM, pH 7.4, calculated from IC50, read-out: GmolGOBP2 Ki
[4] = protein and 1-NPN 2 μM, pH 7.4, displacing half of initial fluorescence, read-out: GmolGOBP2 IC50

Chain of GmolGOBP2 (H9XTU6 entry or part of it): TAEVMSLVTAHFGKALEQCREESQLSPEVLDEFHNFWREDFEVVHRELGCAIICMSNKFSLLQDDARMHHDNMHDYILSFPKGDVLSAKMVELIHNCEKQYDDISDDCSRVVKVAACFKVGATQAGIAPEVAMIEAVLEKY
Chain of GmolGOBP2 V114A (H9XTU6 entry or part of it V134A): as the sequence (H9XTU6 entry or part of it) above, with V114A counted along it
Chain of GmolGOBP2 V111A (H9XTU6 entry or part of it V131A): as the sequence (H9XTU6 entry or part of it) above, with V111A counted along it
Chain of GmolGOBP2 T9A (H9XTU6 entry or part of it T29A): as the sequence (H9XTU6 entry or part of it) above, with T9A counted along it
Chain of rGmolGOBP2 (H9XTU6 entry or part of it): as the sequence (H9XTU6 entry or part of it) above

CCCCCC(=O)OCCCC [Butyl hexanoate]
Ki (GmolGOBP1; [1]): 17.7 µM
IC50 (GmolGOBP1; [2]): 19.2 ± 1.27 µM
Ki (GmolGOBP2; [3]): 43.1 µM
IC50 (GmolGOBP2; [4]): 52.2 ± 2.49 µM

CCCCCCCCCC [Decane]
Ki (GmolGOBP1; [1]): 5.19 µM
IC50 (GmolGOBP1; [2]): 5.64 ± 0.69 µM

CC/C=C\CC1C(=O)CCC1CC(=O)OC (stereo not shown) [Methyl jasmonate]
Ki (GmolGOBP1; [1]): 35.8 µM
IC50 (GmolGOBP1; [2]): 38.9 ± 1.56 µM
Ki (GmolGOBP2; [3]): 60.8 µM
IC50 (GmolGOBP2; [4]): 73.7 ± 5 µM

CCCCCCCCCCCCCCO [tetradecanol]
Ki (GmolGOBP2): 0.36 ± 0.05 µM
affinity of T9A mutant versus wild-type (in words) (GmolGOBP2 T9A; T9A versus wild-type rGmolGOBP2): drastical decline in affinity
Ki (GmolGOBP2 T9A; mutant T9A, protein and 1-NPN 2 μM, ligand 0 to 14 μM, read-out: Ki T9A): 5.75 ± 0.86 µM
affinity of V111A mutant versus wild-type (in words) (GmolGOBP2 V111A; V111A versus wild-type rGmolGOBP2): no differences
Ki (GmolGOBP2 V111A; mutant V111A, protein and 1-NPN 2 μM, ligand 0 to 14 μM, read-out: Ki V111A): 0.3 ± 0.16 µM
affinity of V114A mutant versus wild-type (in words) (GmolGOBP2 V114A; V114A versus wild-type rGmolGOBP2): no differences
Ki (GmolGOBP2 V114A; mutant V114A, protein and 1-NPN 2 μM, ligand 0 to 14 μM, read-out: Ki V114A): 0.37 ± 0.14 µM

c1ccc(Nc2cccc3ccccc23)cc1 [1-NPN, 1-N-phenyl-naphthylamine]
Kd (rGmolGOBP1): 11.4 µM
Kd (rGmolGOBP2): 4.73 µM

CCCCCCCCCCCCCCCC [Hexadecane]
binding to rGmolGOBP1 (in words) (GmolGOBP1): very weak binding affinities

CCCCCCOC(C)=O [Hexyl acetate]
Ki (GmolGOBP1; [1]): 27.5 µM
IC50 (GmolGOBP1; [2]): 29.9 ± 4.11 µM
Ki (GmolGOBP2; [3]): 81.6 µM
IC50 (GmolGOBP2; [4]): 98.8 ± 3.63 µM

CCCCOC(=O)CCC [Butyl butyrate]
Ki (GmolGOBP1; [1]): 33.1 µM
IC50 (GmolGOBP1; [2]): 36 ± 2.5 µM

CCC/C=C/C=O [(E)-2-Hexenal]
IC50 (GmolGOBP1): 23 ± 1.85 µM
Ki (GmolGOBP1): 21.2 µM

CCCCCCC=O [Heptanal]
Ki (GmolGOBP1; [1]): 34.2 µM
IC50 (GmolGOBP1; [2]): 37.1 ± 4.5 µM

CCCCCCCCCCCCCCCCCC [Octadecane]
binding to rGmolGOBP1 (in words) (GmolGOBP1): very weak binding affinities

CCC/C=C/CCCCCCCOC(C)=O [E8-12:AC, (E)-8-dodecenyl acetate]
Ki (GmolGOBP1; [1]): 8.85 µM
IC50 (GmolGOBP1; [2]): 10.5 ± 0.87 µM
Ki (rGmolPBP1): 1.09 µM

COC(=O)c1ccccc1O [Methyl salicylate]
IC50 (GmolGOBP1): 49.8 ± 6.48 µM
Ki (GmolGOBP1): 45.8 µM
IC50 (GmolGOBP2): 93.7 ± 5.55 µM
Ki (GmolGOBP2): 77.3 µM

CCCCCCO [1-Hexanol]
Ki (GmolGOBP1; [1]): 19.7 µM
IC50 (GmolGOBP1; [2]): 21.4 ± 1.8 µM

CCC/C=C\CCCCCCCO [Z8-12:OH, (Z)-8-dodecenyl alcohol]
Ki (GmolGOBP1; [1]): 3.14 µM
IC50 (GmolGOBP1; [2]): 3.85 ± 0.41 µM
Ki (GmolGOBP2; [3]): 12.8 µM
IC50 (GmolGOBP2; [4]): 15.5 ± 0.52 µM
Ki (rGmolOBP8): 5.59 µM
Ki (rGmolOBP11): 3.05 µM

CCCCCCCCC=O [Nonanal]
Ki (GmolGOBP1; [1]): 54.4 µM
IC50 (GmolGOBP1; [2]): 59.2 ± 8.7 µM
Ki (GmolGOBP2; [3]): 75.3 µM
IC50 (GmolGOBP2; [4]): 91.2 ± 5.49 µM

O=Cc1ccccc1 [Benzaldehyde]
IC50 (GmolGOBP1): 35 ± 3.28 µM
Ki (GmolGOBP1): 32.2 µM
IC50 (GmolGOBP2): 91.3 ± 2.87 µM
Ki (GmolGOBP2): 75.4 µM

CCCCCC(=O)OCC [Ethyl hexanoate]
Ki (GmolGOBP1; [1]): 35 µM
IC50 (GmolGOBP1; [2]): 38.1 ± 3.36 µM

CC/C=C\CCO [Cis-3-Hexen-1-ol]
IC50 (GmolGOBP1): 18.3 ± 1.55 µM
Ki (GmolGOBP1): 16.8 µM
